The target in test [1] is T1, HIF-2α HIS TAG-PASB Domain (Homo sapiens, UniProt Q99814).
T1 construct: 100 nM HIF-2α HIS TAG-PASB Domain
As to the kind of experiment: HIF-2α Scintillation Proximity Assay (SPA). In kind it is binding. Conditions: 100 nM HIF-2α HIS TAG-PASB Domain. The method, boiled down:
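IC50 values rest on percent inhibition, where the sample signal is scaled between high and low controls. Wells contain about 100 μL: compound dispensed as 2 μL of DMSO solution, 88 μL protein-probe mix and 10 μL of beads.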
A general note: In a scintillation proximity assay essentially only radioactivity close to the scintillant gives light.

The test system of the next test is 786-0 cells. As to the kind of experiment: VEGF ELISA Assay. In kind it is cell-based. As to the method: Each concentration had duplicated wells. About 20 hours later, medium was removed by suction and each well was supplied with 180 μL of growth medium. About 20 μl freshly-made 10× compound stocks were added to each well. […] The EC50 was calculated by GraphPad Prism using the dose-response-inhibition (four parameter) equation. The cell seeded plate was then subjected to CellTiter-Glo luminescence cell viability assay (Promega) by adding 50 μL of Celltiter Glo reagent into each well and shaking the plate for 8 minutes at 550 rpm (Thermomixer R, Eppendorf) then read luminescence signal in plate reader (3 second delay, 0.5 second/well integration time, Synergy 2 multi Detection Microplate reader) immediately.

The subject of another test is 786-O-Hif-Luc cells. As to the kind of experiment: Luciferase Assay. The class given is cell-based. Conditions: read-out: Luciferase EC50. How it is done:
A pool of infected cells were then selected against 2 μg/mL of puromycin (P8833, Sigma) for 10 days followed by limited dilution to select single clones.
Each concentration was tested in triplicate. After about 24 hours, luciferase activity was determined using ONE-Glo Luciferase Assay Reagent (E6110, Promega) following the manufacturer's recommended procedure. EC50 were calculated by using Dotmatics software.

Setting [2] is: Homo sapiens, 786-0, 786-0 cells, VEGFA concentration in cell culture medium, read-out: VEGF ELISA EC50.
The mark [3] stands for this setting: 24 h, 786-O-Hif-Luc cells, about 24 hours.
Where [4] appears, read: 150 nM Compound 211 probe, read-out: SPA IC50.

Like-named read-outs stand apart in the source and are kept apart here. Where only a bound is given, the exact number is not on record here.

Broadly, the IC50 is the concentration at which inhibition is half-maximal. The EC50 is the midpoint of the concentration-response curve.

T1 sequence (Q99814 240-350 limits assumed): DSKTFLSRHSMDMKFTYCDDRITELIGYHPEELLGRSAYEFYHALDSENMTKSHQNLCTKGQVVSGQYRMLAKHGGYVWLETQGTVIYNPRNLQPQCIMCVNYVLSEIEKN

In test [1] (SPA IC50, 150 nM Compound 211 probe), `N#Cc1cc(F)cc(Oc2ccc(S(=O)(=O)C(F)(F)F)c3c2CC(F)(F)[C@H]3O)c1` [Compound 8, (S)-3-((2,2-Difluoro-1-hydroxy-7-((trifluoromethyl)sulfonyl)-2,3-dihydro-1H-inden-4-yl)oxy)-5-fluorobenzonitrile] had an IC50 of under 5 nM. Moreover, the EC50 in the test on 786-0 cells (setting [2]) is 4 nM; in the test with 786-O-Hif-Luc cells (setting [3]), 3 nM.
Consider `O=S(=O)(c1ccc(Oc2cncc(Cl)c2)c2c1[C@H](O)C(F)(F)C2)C(F)(F)F` [Compound 9, (S)-4-((5-Chloropyridin-3-yl)oxy)-2,2-difluoro-7-((trifluoromethyl)sulfonyl)-2,3-dihydro-1H-inden-1-ol], for which the IC50 in test [1] (setting [4]) is under 5 nM. For the same compound, the EC50 is 13 nM in the test on 786-0 cells (setting [2]) and 11 nM in the test on 786-O-Hif-Luc cells (setting [3]).
Turning to `N#Cc1cncc(Oc2ccc(S(=O)(=O)C(F)(F)F)c3c2C[C@@H](F)[C@H]3O)c1` [Compound 14, 5-(((1S,2R)-2-Fluoro-1-hydroxy-7-((trifluoromethyl)sulfonyl)-2,3-dihydro-1H-inden-4-yl)oxy)nicotinonitrile], the half-maximal inhibitory concentration (IC50) in test [1] (setting [4]) was under 5 nM. The EC50 in the test on 786-0 cells (setting [2]) was determined as 69 nM; with 786-O-Hif-Luc cells (setting [3]) it was 25 nM.
In the case of `N#Cc1cc(Oc2ccc(S(=O)(=O)C(F)(F)F)c3c2CC(F)(F)[C@H]3O)c[n+]([O-])c1` [Compound 31, (S)-3-cyano-5-((2,2-difluoro-1-hydroxy-7-((trifluoromethyl)sulfonyl)-2,3-dihydro-1H-inden-4-yl)oxy)pyridine 1-oxide], the half-inhibitory concentration (IC50) in test [1] (setting [4]) was 110 nM. For the same compound, the EC50 stood at 830 nM in the test on 786-0 cells (setting [2]) and 160 nM in the test with 786-O-Hif-Luc cells (setting [3]).
For `N#Cc1cc(F)cc(Oc2ccc(C(F)(F)F)c3c2CC(F)(F)[C@H]3O)c1` [Compound 37, 3-[(1S)-2,2-Difluoro-1-hydroxy-7-(trifluoromethyl)indan-4-yl]oxy-5-fluoro-benzonitrile] the same measures were under 5 nM, 6 nM and 5 nM.
Consider `CS(=O)(=O)c1ccc(Oc2cc(F)cc(C#N)c2)c2c1[C@H](O)C(F)(F)[C@@H]2F` [Compound 56, 3-fluoro-5-[(1S,3R)-2,2,3-trifluoro-1-hydroxy-7-methylsulfonyl-indan-4-yl]oxy-benzonitrile], for which the IC50 in test [1] (setting [4]) is under 5 nM. Besides, the EC50 in the test on 786-0 cells (Homo sapiens, 786-0, read-out: VEGF ELISA EC50) stood at 6 nM; in the test with 786-O-Hif-Luc cells (24 h), 3 nM.
With `N#Cc1cncc(Oc2ccc(C(F)(F)F)c3c2CC(F)(F)[C@H]3O)c1` [Compound 67, 5-[(1S)-2,2-difluoro-1-hydroxy-7-(trifluoromethyl)indan-4-yl]oxypyridine-3-carbonitrile], the IC50 in test [1] (setting [4]) stood at 37 nM. Moreover, the EC50 with 786-0 cells (setting [2]) was 64 nM; in the test with 786-O-Hif-Luc cells (setting [3]), 35 nM.
As for `CS(=O)(=O)c1ccc(Oc2cc(F)cc(Br)c2)c2c1[C@H](O)C(F)(F)C2` [Compound 68, (S)-4-(3-bromo-5-fluorophenoxy)-2,2-difluoro-7-(methylsulfonyl)-2,3-dihydro-1H-inden-1-ol], in test [1] (setting [4]), the IC50 is under 5 nM. The EC50 was found to be 62 nM in the test with 786-0 cells (setting [2]) and 22 nM with 786-O-Hif-Luc cells (setting [3]).
As for `O=S(=O)(c1ccc(Oc2cncc(F)c2)c2c1[C@H](O)C(F)(F)C2)C(F)(F)F` [Compound 73, (S)-2,2-difluoro-4-((5-fluoropyridin-3-yl)oxy)-7-((trifluoromethyl)sulfonyl)-2,3-dihydro-1H-inden-1-ol], the IC50 in test [1] (setting [4]) is under 5 nM. Further, the figures for the EC50 in the test on 786-0 cells (setting [2]) and with 786-O-Hif-Luc cells (setting [3]) were 26 nM and 9 nM, respectively.
For `O=S(=O)(c1ccc(Oc2cc(F)c[n+]([O-])c2)c2c1[C@H](O)C(F)(F)C2)C(F)(F)F` [Compound 74, (S)-3-((2,2-difluoro-1-hydroxy-7-((trifluoromethyl)sulfonyl)-2,3-dihydro-1H-inden-4-yl)oxonio)-5-fluoropyridine 1-oxide], in that order: 16 nM, 140 nM and 113 nM.
For `N#Cc1cncc(Oc2ccc(S(=N)(=O)C(F)(F)F)c3c2CC(F)(F)[C@H]3O)c1` (stereo partly drawn) [Compound 78, 5-(((1S)-2,2-difluoro-1-hydroxy-7-(S-(trifluoromethyl)sulfonimidoyl)-2,3-dihydro-1H-inden-4-yl)oxy)nicotinonitrile], in that order: 25 nM, 83 nM and 148 nM.
As to `N#Cc1cncc(Oc2ccc(S(=N)(=O)C(F)(F)F)c3c2CC(F)(F)[C@H]3O)c1` (stereo partly drawn) [Compound 79, 5-(((1S)-2,2-difluoro-1-hydroxy-7-(S-(trifluoromethyl)sulfonimidoyl)-2,3-dihydro-1H-inden-4-yl)oxy)nicotinonitrile], the IC50 in test [1] (setting [4]) was determined as 23 nM. Further, the EC50 with 786-0 cells (786-0 cells, VEGFA concentration in cell culture medium, read-out: VEGF ELISA EC50) turned out to be 116 nM; in the test with 786-O-Hif-Luc cells (786-O-Hif-Luc cells, about 24 hours), 106 nM.
Consider `CS(=O)(=O)c1ccc(Oc2cncc(C#N)c2)c2c1[C@H](O)C(F)(F)C2` [Compound 89, (S)-5-((2,2-Difluoro-1-hydroxy-7-(methylsulfonyl)-2,3-dihydro-1H-inden-4-yl)oxy)nicotinonitrile], for which the IC50 in test [1] (setting [4]) came to 180 nM. Moreover, the EC50 with 786-0 cells (setting [2]) is 146 nM; with 786-O-Hif-Luc cells (setting [3]) it was 488 nM.
For `CS(=O)(=O)c1ccc(Oc2ccc(F)c(C#N)c2)c2c1[C@H](O)C(F)(F)[C@@H]2F` [Compound 91, 2-Fluoro-5-(((1S,3R)-2,2,3-trifluoro-1-hydroxy-7-(methylsulfonyl)-2,3-dihydro-1H-inden-4-yl)oxy)benzonitrile], in that order: 28 nM, 273 nM and 129 nM.
For `CS(=O)(=O)c1ccc(Oc2cncc(Br)c2)c2c1[C@H](O)[C@H](F)[C@@H]2F` [Compound 92, (1S,2S,3R)-4-((5-Bromopyridin-3-yl)oxy)-2,3-difluoro-7-(methylsulfonyl)-2,3-dihydro-1H-inden-1-ol], in that order: 32 nM, 187 nM and 162 nM.
For `CS(=O)(=O)c1ccc(Oc2cncc(F)c2)c2c1[C@H](O)C(F)(F)[C@@H]2F` [Compound 93, (1S,3R)-2,2,3-trifluoro-4-((5-fluoropyridin-3-yl)oxy)-7-(methylsulfonyl)-2,3-dihydro-1H-inden-1-ol], the IC50 in test [1] (setting [4]) is under 5 nM. Besides, the figures for the EC50 in the test with 786-0 cells (setting [2]) and with 786-O-Hif-Luc cells (setting [3]) were 47 nM and 34 nM, respectively.
For `CS(=O)(=O)c1ccc(Oc2cncc(Cl)c2)c2c1[C@H](O)C(F)(F)[C@@H]2F` [Compound 95, (1S,3R)-4-((5-chloropyridin-3-yl)oxy)-2,2,3-trifluoro-7-(methylsulfonyl)-2,3-dihydro-1H-inden-1-ol], in that order: 7.2 nM, 41 nM and 41 nM.
For `CS(=O)(=O)c1ccc(Oc2cncc(C#N)c2)c2c1[C@H](O)[C@H](F)[C@@H]2F` [Compound 97, 5-(((1S,2S,3R)-2,3-difluoro-1-hydroxy-7-(methylsulfonyl)-2,3-dihydro-1H-inden-4-yl)oxy)nicotinonitrile], in that order: 74 nM, 163 nM and 174 nM.
Turning to `N#Cc1cncc(Oc2ccc(S(N)(=O)=O)c3c2[C@@H](F)C(F)(F)[C@H]3O)c1` [Compound 104, (1R,3S)-7-[(5-cyano-3-pyridyl)oxy]-1,2,2-trifluoro-3-hydroxy-indane-4-sulfonamide], in test [1] (setting [4]), the IC50 turned out to be 24 nM. Further, the EC50 with 786-0 cells (setting [2]) amounted to 136 nM; in the test on 786-O-Hif-Luc cells (setting [3]) it was 125 nM.

(Values after patent publication US10098878B2, “HIF-2α inhibitors for treating iron overload disorders” (The Board of Regents of the University of Texas System, priority 2014, dated 2018).)
